According to US12421254B2, “KRAS modulators and uses thereof” (Quanta Therapeutics, Inc., priority 2023, dated 2025):

How the values were obtained:
[1] = biological target: GST-tagged KRAS-G12V (2-169) (Homo sapiens, UniProt P01116, G12V); experiment: Nucleotide exchange assay (NEA), SOS-mediated, HTRF, KRAS G12V; type: biochemical; conditions: Table 4; IC50 extracted at 90 min; 80 nM SOS
In short: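 GST-KRAS-G12V (2-169), 0.25 nM, pre-incubated 1 h at RT with compound, then SOS1cat (564-1049) 80 nM and GTP-DY-647P1 150 nM added in HEPES pH 7.3 buffer with MgCl2 and DTT. HTRF via anti-GST Tb cryptate read over 90 min; IC50 from 4-parameter fit at 90 min, blanked to no-SOS reactions.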

[2] = biological target: GST-tagged KRAS-G12D (2-169) (Homo sapiens, UniProt P01116, G12D); experiment: Nucleotide exchange assay (NEA), SOS-mediated, HTRF, KRAS G12D; type: biochemical; conditions: Table 4; IC50 extracted at 30 min; 20 nM SOScat; read-out: NEA G12D IC50
In short: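 Compound preincubated 1 h at RT with 0.25 nM GST-KRAS-G12D (2-169) and anti-GST Tb donor, then 20 nM SOS1cat (564-1049) and 150 nM GTP-DY-647P1 added; pH 7.3 HEPES buffer with MgCl2 and DTT. HTRF monitored at RT; % inhibition versus DMSO and no-SOS blank, 4-parameter IC50 taken at 30 min.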

Chain of GST-tagged KRAS-G12D (2-169) (P01116 2-169 isoform P01116-2 G12D): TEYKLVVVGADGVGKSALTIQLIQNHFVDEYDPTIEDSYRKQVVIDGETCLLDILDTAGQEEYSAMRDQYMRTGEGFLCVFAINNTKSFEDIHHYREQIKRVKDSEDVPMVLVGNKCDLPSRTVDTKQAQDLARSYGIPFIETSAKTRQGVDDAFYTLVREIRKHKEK
Chain of GST-tagged KRAS-G12V (2-169) (P01116 2-169 isoform P01116-2 G12V): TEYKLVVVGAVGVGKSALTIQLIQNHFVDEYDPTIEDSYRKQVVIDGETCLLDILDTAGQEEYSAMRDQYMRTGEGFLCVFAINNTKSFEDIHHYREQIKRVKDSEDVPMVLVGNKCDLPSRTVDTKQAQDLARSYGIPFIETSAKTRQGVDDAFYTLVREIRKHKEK

SMILES | IC50 [1] [nM] | IC50 [2] [nM]
C[C@H](c1cccnc1N)N(CC(F)F)c1nc(OCC2(CN(C)C)CC2(F)F)nc(N2CC3(C2)SCc2sc(N)c(C#N)c23)n1 (stereo partly drawn) [Compound 220, 2-amino-1′-[4-[[(1R)-1-(2-amino-3-pyridyl)ethyl]-(2,2-difluoroethyl)amino]-6-[[1-[(dimethylamino)methyl]-2,2-difluoro-cyclopropyl]methoxy]-1,3,5-triazin-2-yl]spiro[6H-thieno[3,4-b]thiophene-4,3′-azetidine]-3-carbonitrile] | < 10 | < 10
CCN(c1nc(OC[C@]2(C(F)F)CCCN2)nc(N2CC3(C2)SCc2sc(N)c(C#N)c23)n1)[C@H](C)c1cccnc1N [Compound 221, 2-amino-1′-[4-[[(1R)-1-(2-amino-3-pyridyl)ethyl]-ethyl-amino]-6-[[(2S)-2-(difluoromethyl)pyrrolidin-2-yl]methoxy]-1,3,5-triazin-2-yl]spiro[6H-thieno[3,4-b]thiophene-4,3′-azetidine]-3-carbonitrile] | < 10 | < 10
CCN(c1nc(OCC2(COC)CCCC2)nc(N2CC3(C2)SCc2sc(N)c(C#N)c23)n1)[C@H](C)c1cccnc1N [Compound 222, 2-amino-1′-[4-[[(1R)-1-(2-amino-3-pyridyl)ethyl]-ethyl-amino]-6-[[1-(methoxymethyl)cyclopentyl]methoxy]-1,3,5-triazin-2-yl]spiro[6H-thieno[3,4-b]thiophene-4,3′-azetidine]-3-carbonitrile] | 100 to 1000 | 1000 to 20000
CC(c1ccc[n+]([O-])c1)N(C)c1nc(OC[C@@]23CCCN2C[C@H](F)C3)nc(N2CC3(C2)SCc2sc(N)c(C#N)c23)n1 (stereo partly drawn) [Compound 224, 3-(1-((4-(2′-amino-3′-cyano-6′H-spiro[azetidine-3,4′-thieno[3,4-b]thiophen]-1-yl)-6-(((2R,7aS)-2-fluorotetrahydro-1H-pyrrolizin-7a(5H)-yl)methoxy)-1,3,5-triazin-2-yl)(methyl)amino)ethyl)pyridine 1-oxide] | 10 to 100 | 10 to 100
CCN(c1nc(OCC2(CN(C)C)CCCN2)nc(N2CC3(C2)SCc2sc(N)c(C#N)c23)n1)[C@H](C)c1cccnc1N (stereo partly drawn) [Compound 225, 2-amino-1′-[4-[[(1R)-1-(2-amino-3-pyridyl)ethyl]-ethyl-amino]-6-[[2-[(dimethylamino)methyl]pyrrolidin-2-yl]methoxy]-1,3,5-triazin-2-yl]spiro[6H-thieno[3,4-b]thiophene-4,3′-azetidine]-3-carbonitrile] | < 10 | 10 to 100
CCN(c1nc(OC[C@@]23CCCN2C[C@H](F)C3)nc(N2CC3(C2)c2c(sc(N)c2C#N)CN3CC(F)F)n1)[C@H](C)c1cccnc1N [Compound 227, 2-amino-1′-[4-[[(1R)-1-(2-amino-3-pyridyl)ethyl]-ethyl-amino]-6-[[(2R,8S)-2-fluoro-1,2,3,5,6,7-hexahydropyrrolizin-8-yl]methoxy]-1,3,5-triazin-2-yl]-5-(2,2-difluoroethyl)spiro[6H-thieno[2,3-c]pyrrole-4,3′-azetidine]-3-carbonitrile] | 10 to 100 | 100 to 1000
CCN(c1nc(OC[C@@]23CCCN2C[C@H](F)C3)nc(N2CC3(C2)c2c(sc(N)c2C#N)CN3CC#N)n1)[C@H](C)c1cccnc1N [Compound 228, 2-amino-1′-[4-[[(1R)-1-(2-amino-3-pyridyl)ethyl]-ethyl-amino]-6-[[(2R,8S)-2-fluoro-1,2,3,5,6,7-hexahydropyrrolizin-8-yl]methoxy]-1,3,5-triazin-2-yl]-5-(cyanomethyl)spiro[6H-thieno[2,3-c]pyrrole-4,3′-azetidine]-3-carbonitrile] | 100 to 1000 | 1000 to 20000
C[C@H](c1ccc(P(C)(C)=O)cc1)N(C)c1nc(OC[C@@]23CCCN2C[C@H](F)C3)nc(N2CC3(C2)SCc2sc(N)c(C#N)c23)n1 [Compound 229, 2′-amino-1-(4-(((R)-1-(4-(dimethylphosphoryl)phenyl)ethyl)(methyl)amino)-6-(((2R,7aS)-2-fluorotetrahydro-1H-pyrrolizin-7a(5H)-yl)methoxy)-1,3,5-triazin-2-yl)-6′H-spiro[azetidine-3,4′-thieno[3,4-b]thiophene]-3′-carbonitrile] | 1000 to 20000 | 1000 to 20000
Cc1ccc(C(C)N(C)c2nc(OC[C@@]34CCCN3C[C@H](F)C4)nc(N3CC4(C3)SCc3sc(N)c(C#N)c34)n2)c(N)n1 (stereo partly drawn) [Compound 230, 2′-amino-1-(4-((1-(2-amino-6-methylpyridin-3-yl)ethyl)(methyl)amino)-6-(((2R,7aS)-2-fluorotetrahydro-1H-pyrrolizin-7a(5H)-yl)methoxy)-1,3,5-triazin-2-yl)-6′H-spiro[azetidine-3,4′-thieno[3,4-b]thiophene]-3′-carbonitrile] | 1000 to 20000 | 1000 to 20000
CC(c1ccc(P(C)(C)=O)cc1N)N(C)c1nc(OC[C@@]23CCCN2C[C@H](F)C3)nc(N2CC3(C2)SCc2sc(N)c(C#N)c23)n1 (stereo partly drawn) [Compound 231, 2′-amino-1-(4-((1-(2-amino-4-(dimethylphosphoryl)phenyl)ethyl)(methyl)amino)-6-(((2R,7aS)-2-fluorotetrahydro-1H-pyrrolizin-7a(5H)-yl)methoxy)-1,3,5-triazin-2-yl)-6′H-spiro[azetidine-3,4′-thieno[3,4-b]thiophene]-3′-carbonitrile] | ≥ 20000 | ≥ 20000
C[C@H](c1ccc(P(C)(C)=O)nc1N)N(C)c1nc(OC[C@@]23CCCN2C[C@H](F)C3)nc(N2CC3(C2)SCc2sc(N)c(C#N)c23)n1 [Compound 232, 2-amino-1′-[4-[1-(2-amino-6-dimethylphosphoryl-3-pyridyl)ethyl-methyl-amino]-6-[[(2R,8S)-2-fluoro-1,2,3,5,6,7-hexahydropyrrolizin-8-yl]methoxy]-1,3,5-triazin-2-yl]spiro[6H-thieno[3,4-b]thiophene-4,3′-azetidine]-3-carbonitrile] | 100 to 1000 | 1000 to 20000
COc1ccc(C(C)N(C)c2nc(OC[C@@]34CCCN3C[C@H](F)C4)nc(N3CC4(C3)SCc3sc(N)c(C#N)c34)n2)c(N)n1 (stereo partly drawn) [Compound 233, 2′-amino-1-(4-((1-(2-amino-6-methoxypyridin-3-yl)ethyl)(methyl)amino)-6-(((2R,7aS)-2-fluorotetrahydro-1H-pyrrolizin-7a(5H)-yl)methoxy)-1,3,5-triazin-2-yl)-6′H-spiro[azetidine-3,4′-thieno[3,4-b]thiophene]-3′-carbonitrile] | 100 to 1000 | 1000 to 20000
CCN(c1nc(OC[C@@]23CCCN2C[C@H](F)C3)nc(N2CC3(C2)SCc2sc(N)c(C#N)c23)n1)C1(C(N)=O)CC1 [Compound 234, 1-[[4-(2-amino-3-cyano-spiro[6H-thieno[3,4-b]thiophene-4,3′-azetidine]-1′-yl)-6-[[(2R,8S)-2-fluoro-1,2,3,5,6,7-hexahydropyrrolizin-8-yl]methoxy]-1,3,5-triazin-2-yl]-ethyl-amino]cyclopropanecarboxamide] | 10 to 100 | 100 to 1000
CN(c1nc(OC[C@@]23CCCN2C[C@H](F)C3)nc(N2CC3(C2)SCc2sc(N)c(C#N)c23)n1)[C@H]1[C@H]2CN[C@@H]1C2 [Compound 257, 2-amino-1′-[4-[[(1R,4R,5S)-2-azabicyclo[2.1.1]hexan-5-yl]-methyl-amino]-6-[[(2R,8S)-2-fluoro-1,2,3,5,6,7-hexahydropyrrolizin-8-yl]methoxy]-1,3,5-triazin-2-yl]spiro[6H-thieno[3,4-b]thiophene-4,3′-azetidine]-3-carbonitrile] | 10 to 100 | < 10
